Results from ChEMBL document CHEMBL3244423, “Cardioselectivity as a function of molecular structure in beta-adrenoceptor blocking agents of the 1-(para-substituted aryloxy)-3-(isopropylamino)propan-2-ol type” (J Med Chem, 1978).
The source made the active and inactive calls. The rule behind the calls is not given here.

Tests used:
Felis catus [1] = species on record: Felis catus; test: Selectivity ratio of antagonist activity at beta1 adrenergic receptor in cat to antagonist activity at beta2 adrenergic receptor in cat
Felis catus [2] = test: In vivo antagonist activity at beta2 adrenergic receptor in cat assessed as vascular activity; type: organism-based; settings: read-out: pA2 (converted)
Felis catus [3] = test: In vivo antagonist activity at beta1 adrenergic receptor in cat assessed as myocardial activity; type: functional, organism-based; settings: Myocardium, read-out: pA2 (converted)
[4] = biological target: Beta-1 adrenergic receptor (Rattus norvegicus, UniProt P18090); test: Antagonist activity at beta1 adrenergic receptor in isolated rat atria; settings: read-out: pA2 (converted)
[5] = biological target: Beta-2 adrenergic receptor (Rattus norvegicus, UniProt P10608); test: Antagonist activity at beta2 adrenergic receptor in isolated rat stomach fundus; settings: read-out: pA2 (converted)
[6] = Selectivity ratio of beta1 adrenergic receptor in isolated rat atria to beta2 adrenergic receptor in isolated rat stomach fundus
[7] = biological target: Beta-1 adrenergic receptor (Rattus norvegicus) (UniProt P18090); test: Agonist activity at beta1 adrenergic receptor in isolated rat atria in presence of propranolol
[8] = biological target: Beta-2 adrenergic receptor (Rattus norvegicus) (UniProt P10608); test: Agonist activity at beta2 adrenergic receptor in isolated rat stomach fundus in presence of propranolol
Sequence of Beta-2 adrenergic receptor (Rattus norvegicus) (P10608 whole entry, looked up): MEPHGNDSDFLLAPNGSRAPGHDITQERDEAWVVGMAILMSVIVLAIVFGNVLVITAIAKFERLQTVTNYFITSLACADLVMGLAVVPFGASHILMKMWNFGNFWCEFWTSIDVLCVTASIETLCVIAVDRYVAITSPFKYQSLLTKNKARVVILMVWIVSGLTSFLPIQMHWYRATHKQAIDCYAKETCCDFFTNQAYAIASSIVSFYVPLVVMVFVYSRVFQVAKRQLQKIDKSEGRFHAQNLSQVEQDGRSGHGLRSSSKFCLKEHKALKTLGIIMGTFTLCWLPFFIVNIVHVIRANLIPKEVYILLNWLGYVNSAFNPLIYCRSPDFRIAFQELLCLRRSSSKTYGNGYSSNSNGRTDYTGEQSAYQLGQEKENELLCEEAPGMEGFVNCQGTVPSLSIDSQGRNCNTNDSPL

Sequence of Beta-1 adrenergic receptor (P18090 whole entry): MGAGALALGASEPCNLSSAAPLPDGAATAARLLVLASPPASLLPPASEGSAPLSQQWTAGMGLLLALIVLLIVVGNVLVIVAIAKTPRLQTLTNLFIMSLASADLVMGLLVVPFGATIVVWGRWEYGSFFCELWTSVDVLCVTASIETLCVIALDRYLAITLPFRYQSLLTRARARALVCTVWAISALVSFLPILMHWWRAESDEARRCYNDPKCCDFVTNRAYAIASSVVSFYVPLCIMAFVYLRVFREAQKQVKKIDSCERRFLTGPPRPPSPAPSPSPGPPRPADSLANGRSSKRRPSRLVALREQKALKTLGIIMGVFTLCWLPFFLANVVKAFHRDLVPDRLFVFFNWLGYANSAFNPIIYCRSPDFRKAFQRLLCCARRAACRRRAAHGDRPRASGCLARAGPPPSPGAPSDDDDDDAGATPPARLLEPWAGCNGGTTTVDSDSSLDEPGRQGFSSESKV
Sequence of Beta-2 adrenergic receptor (P10608 whole entry): as the sequence (P10608 whole entry, looked up) above
Sequence of Beta-1 adrenergic receptor (Rattus norvegicus) (P18090 whole entry, looked up): as the sequence (P18090 whole entry) above

| Structure (SMILES) | Selectivity ratio (Felis catus [1]) | Kb (Felis catus [2]) [µM] | Kb (Felis catus [3]) [µM] | Kb [4] [µM] | Kb [5] [µM] | Selectivity ratio [6] | Activity [7] | Activity [8] |
| --- | --- | --- | --- | --- | --- | --- | --- | --- |
| CC(C)NCC(O)COc1ccc2c(c1)CCCC(=O)N2 (racemic) | 1 | 10 | 10 |  |  |  |  |  |
| CC(=O)Nc1ccc(OCC(O)CNC(C)C)cc1 (stereo not given) [PRACTOLOL] |  |  |  | 0.339 |  |  |  |  |
| CCCc1ccc(OCC(O)CNC(C)C)cc1.Cl (racemic) |  |  |  | 0.0251 | 0.158 | 6.5 |  |  |
| CC(C)NCC(O)COc1ccc(CC2(C)OCCO2)cc1 (racemic) |  |  |  | > 316 | > 316 |  | inactive | inactive |
| CC(C)NCC(O)COc1ccc2c(c1)OCCNC2=O (racemic) |  |  |  | 18.2 | 45.7 | 2.5 |  |  |
| CC(C)NCC(O)COc1ccc2c(c1)CCCNC2=O (racemic) |  |  |  | 135 | 81.3 | 0.6 |  |  |
| CC(C)NCC(O)COc1ccc2c(c1)OCC(=O)N2 (racemic) | 1.3 | 3.16 | 2.51 |  |  |  |  |  |
| CCc1ccc(OCC(O)CNC(C)C)cc1 (racemic) |  |  |  | 0.0631 | 0.0316 | 0.5 |  |  |
| CNC(=O)c1ccc(OCC(O)CNC(C)C)cc1 (racemic) |  |  |  | 3.63 | 1000 | 275 |  |  |
| CC(C)NCC(O)COc1ccc(C(N)=O)cc1 (racemic) |  |  |  | 10 | 15.8 | 1.6 |  |  |
| C/C=C/c1ccc(OCC(O)CNC(C)C)c(OC)c1 (racemic) |  |  |  | 0.0501 | 1.26 | 25 |  |  |
| C/C=C\c1ccc(OCC(O)CNC(C)C)c(OC)c1 (racemic) |  |  |  | 0.2 | 0.02 | 0.1 |  |  |
